From patent US20250205257A1 (priority 2022, published 2025)

Experiments:
[1] = test system: recombinant ASFV genotype II Georgia virus, GeorgiaDMGFB; format: cell-based, African swine fever virus
ASFV Georgia 2007/1 = assay: microbe, parasite or virus in culture; format: cell-based; conditions: African swine fever virus, PBMC, 72 h, read-out: EC50 Georgia 2007/1
ASFV KAB6/2 = assay: microbe, parasite or virus in culture; format: cell-based; conditions: African swine fever virus, PBMC, 72 h, read-out: EC50 KAB6/2
ASFV BOT 1/99 = assay: microbe, parasite or virus in culture; format: cell-based; conditions: African swine fever virus, PBMC, 72 h, read-out: EC50 BOT P1/99
ASFV Magadi w/hog 9 = assay: microbe, parasite or virus in culture; format: cell-based; conditions: African swine fever virus, PBMC, 72 h, read-out: EC50 Magadi w/hog 9
[2] = test system: ASFV strain Georgia 2007/1; conditions: pig, in vivo
[3] = test system: ASFV strain Georgia 2007/1; conditions: pig, in vivo, po, 30 mg/kg
[4] = pig, in vivo
porcine kidney cells = conditions: pig
in vivo = conditions: pig
in vitro = conditions: pig, CC50 (50% cytotoxic concentration)

Compound: CCCCCCCCCCCCCCCCOCCCOP1(=O)CO[C@@H](Cn2ccc(N)nc2=O)CO1 (stereo partly drawn) [Compound 3, Hexadecyloxypropyl ester of cHPMPC]
- efficacy compared to cHPMPC [1]: greatly increased efficacy
- selectivity indices [1]: thousands

Compound: CC(C)OC(=O)[C@H](C)NP1(=O)CO[C@@H](Cn2ccc(N)nc2=O)CO1 (stereo partly drawn) [Compound 5, Isopropyl L-alaninyl cHPMPC]
- efficacy compared to cHPMPC [1]: intermediate

Compound: CC(C)(C)C(=O)OCOP1(=O)CO[C@@H](Cn2ccc(N)nc2=O)CO1 (stereo partly drawn) [Compound 1, Pivaloyloxymethyl ester of cHPMPC]
- efficacy compared to cHPMPC [1]: intermediate

Compound: CCCCCCCCCCCCCCCCCCOCCOP1(=O)CO[C@@H](Cn2ccc(N)nc2=O)CO1 (stereo partly drawn) [Compound 4, Octadecyloxyethyl ester of cHPMPC]
- efficacy compared to cHPMPC [1]: greatly increased efficacy
- selectivity indices [1]: thousands

Compound: CC(C)OC(=O)OCOP1(=O)CO[C@@H](Cn2ccc(N)nc2=O)CO1 (stereo partly drawn) [Compound 2, Isopropyloxycarbonyloxymethyl ester of cHPMPC]
- efficacy compared to cHPMPC [1]: intermediate

Compound: Nc1ccn(C[C@H]2COP(=O)(O)CO2)c(=O)n1 [cHPMPC, cyclic cidofovir]
- EC50 (ASFV Georgia 2007/1): 310 ± 170 nM
- EC50 (ASFV KAB6/2): 590 ± 80 nM
- EC50 (ASFV BOT 1/99): 300 ± 200 nM
- EC50 (ASFV Magadi w/hog 9): 110 ± 50 nM
- pigs survived until the end of the study (day 27 post ASFV challenge) with no ASF disease [2]: 2 pigs
- ASFV genome copies in blood on termination days compared to control pigs ([2]; po, 30 mg/kg): reduced
- ASFV genome copies in swab samples on termination days compared to control pigs ([2]; po, 30 mg/kg): reduced
- median survival ([2]; po, 30 mg/kg): 19.5 days
- pigs euthanized at moderate severity humane endpoint on day 6 showing reduced ASF disease ([2]; po, 30 mg/kg): 2 pigs
- pigs euthanized at moderate severity humane endpoint on day 19 and day 20 with delayed and reduced ASF disease ([2]; po, 30 mg/kg): 2 pigs
- ASF viraemia [3]: significantly reduced
- ASF viral genome copies in organs (lungs, spleens, lymph nodes) compared to placebo [3]: significantly reduced
- median survival / median day of death [3]: 8 days
- concentration above which mNeon Green expression was not observed [1]: > 0.05 µM
- other adverse events [4]: No other adverse events were recorded
- tolerability [4]: well tolerated
- injection site observation 1 hour post intravenous dosing ([4]; iv, 5 mg/kg): redness at injection site was observed in all pigs
- injection site observation 4 hour post intravenous administration ([4]; iv, 5 mg/kg): no injection site reactions were observed
- CC50 (porcine kidney cells): 59000 nM
- half-life (in vivo; iv, 5 mg/kg): 3.31 h
- AUC (in vivo; iv, 5 mg/kg, AUC, analyte VV03-0035): 71.6 µM·h
- AUC (in vivo; iv, 5 mg/kg, exposure (AUC) of VV03-0035, range across pigs): 58 to 95.4 µM·h
- half-life (in vivo; po, 25 mg/kg): 3.51 h
- AUC (in vivo; po, 25 mg/kg, AUC, analyte VV03-0035): 11.6 µM·h
- AUC (in vivo; po, 25 mg/kg, exposure (AUC) of VV03-0035, range across pigs): 2.32 to 23.7 µM·h
- CC50 (in vitro): 47000 nM
